Experimental data reported in the Deep4Chem optical property database.

Assay: solvent given as SMILES

Question: Which absorption maximum (in C1CCOC1) does the source give for `C1=C(c2ccccc2)C=C(c2ccccc2)/C1=C/C1CCCCC1` here?
Answer: The absorption maximum was 365 nm.

Question: With `c1ccc(N(c2ccccc2)c2ccc(-c3cnc(-c4ccc(N(c5ccccc5)c5ccccc5)cc4)s3)cc2)cc1` as the compound, how does the absorption maximum (in CO) read?
Answer: The absorption maximum was 398 nm.

Question: With `O=S1(=O)C(c2ccsc2)=C(c2ccsc2)c2ccccc21` as the compound, how does the absorption maximum (in C1CCOC1) read?
Answer: The absorption maximum was 350 nm.

Question: With `COc1ccc(-c2c3cc4ccccc4cc3c(C#Cc3ccccc3)c3cc4cc(C)sc4cc23)cc1` as the compound, how does the absorption maximum (in ClCCl) read?
Answer: The absorption maximum was 580 nm.

Question: Which absorption maximum (in O) does the source give for `COc1ccc2ccc([O-])cc2c1` here?
Answer: Its absorption maximum is 337 nm.

Question: For `Cc1ccc(-c2nc3c([nH]2)C2=CC(=O)S[C@]2(C)[C@@]2(C)SC(=O)C=C32)cc1`, which absorption maximum (in CC#N) is on record?
Answer: Its absorption maximum is 455 nm.

Question: With `Cc1cc(C)c(B(c2c(C)cc(C)cc2C)c2cc3ccc4ccccc4c3c3c2ccc2ccccc23)c(C)c1` as the compound, how does the absorption maximum (in C1CCCCC1) read?
Answer: Its absorption maximum is 413 nm.

Question: And the absorption maximum (in C1CCOC1)?
Answer: The absorption maximum was 413 nm.

Question: And the absorption maximum (in CC#N)?
Answer: Its absorption maximum is 410 nm.

Question: And the absorption maximum (in ClC(Cl)Cl)?
Answer: The absorption maximum was 413 nm.

Question: What about the absorption maximum (in c1ccccc1) of the same compound?
Answer: Its absorption maximum is 415 nm.

Question: With `Nc1cc2nc3cc(Cl)c(Cl)cc3nc2cc1N` as the compound, how does the absorption maximum (in CCO) read?
Answer: The absorption maximum was 442 nm.

Question: Which results are given for `Cc1cc(O)c(C(=O)/C=C/c2ccccc2O)c(=O)o1`?
Answer: absorption maximum (in CC#N): 359 nm; absorption maximum (in ClCCl): 360 nm

Question: What does the source list for `CCCCN1C(=O)C(=C/C=C/C=C2N(CCCC)c3ccccc3N2CCCC)C(=O)N(CCCC)C1=S`?
Answer: absorption maximum (in CCCCCC): 574 nm; absorption maximum (in CCO): 452 nm; absorption maximum (in CN(C)C=O): 497 nm; absorption maximum (in Cc1ccccc1): 575 nm; absorption maximum (in ClC(Cl)Cl): 559 nm; absorption maximum (in ClCCl): 550 nm

Question: Which absorption maximum (in ClCCl) does the source give for `O=c1c2ccccc2n(-c2ccc(-c3ccc(-n4c5ccccc5c5ccccc54)cc3)cc2)c2ccccc12` here?
Answer: Its absorption maximum is 394 nm.

Question: Which absorption maximum (in ClC(Cl)Cl) does the source give for `CO[B-]1(OC)n2c(C)cc(C)c2C(c2ccc(I)cc2)=C2C(C)=CC(C)=[N+]21` here?
Answer: Its absorption maximum is 505 nm.

Question: Which absorption maximum (in Cc1ccccc1) does the source give for `c1ccc(-c2nc(-c3ccccc3)nc(-c3ccc(-n4c5ccccc5c5cc(-n6c7ccccc7c7ccccc76)ccc54)cc3)n2)cc1` here?
Answer: The absorption maximum was 367 nm.

Question: Which absorption maximum (in Cc1ccccc1) does the source give for `COC(=O)/C(C#N)=c1\s/c(=c2/s/c(=C(/C#N)C(=O)OC)c3cc(-c4ccc5c(c4)C(C)(C)c4ccccc4-5)sc23)c2sc(-c3ccc4c(c3)C(C)(C)c3ccccc3-4)cc12` here?
Answer: The absorption maximum was 630 nm.

Question: With `C/C=C/c1cccc(OC)c1` as the compound, how does the absorption maximum (in CCCCCC) read?
Answer: Its absorption maximum is 293 nm.

Question: Which absorption maximum (in CC#N) does the source give for `CC1=[N+]2C(=C(c3ccccc3)c3c4ccccc4c(C)n3[B-]2(F)F)c2ccccc21` here?
Answer: Its absorption maximum is 597 nm.

Question: With `COc1ccc(-n2c3c4ccccc4nc(-c4ccc(C#N)cc4)c3c3c2c2c(-c4ccc(C#N)cc4)nc4ccccc4c2n3-c2ccc(OC)cc2)cc1` as the compound, how does the absorption maximum (in ClC(Cl)Cl) read?
Answer: The absorption maximum was 315 nm.

Question: For `N#Cc1ccc(N2c3ccccc3C(c3ccccc3)(c3ccccc3)c3ccccc32)cc1`, which absorption maximum (in Cc1ccccc1) is on record?
Answer: Its absorption maximum is 352 nm.

Question: For `COc1ccc(-c2oc3cccc4c5c(-c6ccc(OC)c(OC)c6)/c(=N/S(=O)(=O)C(F)(F)F)oc6cccc(c2c34)c65)cc1OC`, which absorption maximum (in ClC(Cl)Cl) is on record?
Answer: The absorption maximum was 485 nm.

Question: For `CCOC(=O)COc1ccc(/C=C/C2=C3C(C)=CC(C)=[N+]3[B-](F)(F)n3c2c2ccccc2c3-c2[nH]c(C)cc2C)cc1`, which absorption maximum (in ClCCl) is on record?
Answer: The absorption maximum was 608 nm.

Question: Which absorption maximum (in ClC(Cl)Cl) does the source give for `CCCCCCCCCCOc1cc(OCCCCCCCCCC)cc(C2=C3C(/C=C/c4ccc(OC)cc4)=C(C#Cc4ccc(C(C)(C)C)cc4)C(/C=C/c4ccc(OC)cc4)=[N+]3[B-](F)(F)n3c(/C=C/c4ccc(OC)cc4)c(C#Cc4ccc(C(C)(C)C)cc4)c(/C=C/c4ccc(OC)cc4)c32)c1` here?
Answer: The absorption maximum was 732 nm.

Question: Which results are given for `COc1ccc(/C=C/c2nc3ccccc3o2)cc1`?
Answer: absorption maximum (in C1CCCCC1): 330 nm; absorption maximum (in CO): 340 nm

Question: For `CC(=O)Nc1ccc2c(c1)c(=O)c1cc(NC(C)=O)ccc1n2CCCCCC(=O)O`, which absorption maximum (in O) is on record?
Answer: Its absorption maximum is 430 nm.

Question: With `c1ccc2c(c1)CCc1ccccc1N2c1c2ccccc2c(N2c3ccccc3CCc3ccccc32)c2ccccc12` as the compound, how does the absorption maximum (in Cc1ccccc1) read?
Answer: The absorption maximum was 456 nm.

Question: With `COc1cc(OC)c2cc(-c3cccc(-c4cc5c(OC)cc(OC)cc5oc4=O)c3)c(=O)oc2c1` as the compound, how does the absorption maximum (in ClC(Cl)Cl) read?
Answer: Its absorption maximum is 352 nm.

Question: Which absorption maximum (in C1CCOC1) does the source give for `F[B-]1(F)OC(c2ccccc2)=C(c2ccccc2)c2sc3ccccc3[n+]21` here?
Answer: The absorption maximum was 360 nm.

Question: Which absorption maximum (in C1CCCCC1) does the source give for `CCCN1/C(=C\c2c(-c3ccc(N(C)C)cc3)c(=O)c2=O)C=Cc2ccccc21` here?
Answer: The absorption maximum was 358 nm.

Question: And the absorption maximum (in Cc1ccccc1)?
Answer: The absorption maximum was 362 nm.

Question: What about the absorption maximum (in ClCCl) of the same compound?
Answer: Its absorption maximum is 509 nm.

Question: For `CC(C)[Si](C#Cc1c2nc3c(nc2c(C#C[Si](C(C)C)(C(C)C)C(C)C)c2nc4c(nc12)C1c2ccccc2C4c2ccccc21)C1c2ccccc2C3c2ccccc21)(C(C)C)C(C)C`, which absorption maximum (in CCCCCC) is on record?
Answer: The absorption maximum was 450 nm.

Question: For `COc1ccc(-n2nc(C(=O)c3ccc(Cl)cc3)c(N3CCCC3)n2)cc1`, which absorption maximum (in CC#N) is on record?
Answer: Its absorption maximum is 381 nm.

Question: For `Cn1ccc(-c2nc3ccccc3nc2/C=C/N2CCCC2)c1`, which absorption maximum (in CC#N) is on record?
Answer: Its absorption maximum is 445 nm.

Question: What does the source list for `CC1(C)C(/C=C/C=C/c2cc3ccc(O)cc3oc2=O)=[N+](CCCS(=O)(=O)[O-])c2ccc(S(=O)(=O)O)cc21`?
Answer: absorption maximum (in CCO): 508 nm; absorption maximum (in CS(C)=O): 494 nm; absorption maximum (in O): 592 nm

Question: For `CCCCn1c2ccc(-c3cccs3)cc2c2c1c1c3ccc(-c4cccs4)cc3n(CCCC)c1c1c3ccc(-c4cccs4)cc3n(CCCC)c21`, which absorption maximum (in C1CCOC1) is on record?
Answer: Its absorption maximum is 337 nm.

Question: Which absorption maximum (in C1CCCCC1) does the source give for `Cc1ccc(C2=C3C=CC(/C=C/c4ccccc4)=[N+]3[B-](F)(F)n3c(/C=C/c4ccccc4)ccc32)cc1` here?
Answer: Its absorption maximum is 630 nm.

Question: And the absorption maximum (in C1CCOC1)?
Answer: Its absorption maximum is 632 nm.

Question: What about the absorption maximum (in C1COCCO1) of the same compound?
Answer: Its absorption maximum is 633 nm.

Question: And the absorption maximum (in CO)?
Answer: The absorption maximum was 626 nm.

Question: What about the absorption maximum (in ClC(Cl)Cl) of the same compound?
Answer: The absorption maximum was 635 nm.

Question: For `CCCCCCN1C(=O)c2cccc3c(-c4ccc(-c5ccc(-c6ccc7c8c(cccc68)C(=O)N(CCCCCC)C7=O)s5)s4)ccc(c23)C1=O`, which absorption maximum (in ClC(Cl)Cl) is on record?
Answer: Its absorption maximum is 428 nm.

Question: Which absorption maximum (in CC#N) does the source give for `COc1ccc(C#Cc2cc3ccccc3oc2=O)cc1` here?
Answer: The absorption maximum was 353 nm.

Question: Which absorption maximum (in ClCCl) does the source give for `COc1ccc2cc(C3=[N+]4C(=Nc5c(-c6ccc7ccccc7c6)c(Br)c(-c6ccc7cc(OC)ccc7c6)n5[B-]4(F)F)C(c4ccc5ccccc5c4)=C3Br)ccc2c1` here?
Answer: The absorption maximum was 698 nm.

Question: Which results are given for `N#Cc1cccc2[nH]ccc12`?
Answer: absorption maximum (in C1COCCO1): 304.29 nm; absorption maximum (in CC#N): 302.81 nm; absorption maximum (in O): 305 nm
